Assay results from ChEMBL document CHEMBL1201862, “PubChem BioAssay data set” (2004).
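A five-concentration, 48-hour dose response in 96-well plates underlies each endpoint, interpolated linearly between surrounding concentrations. The concentration for 50% growth inhibition is given as GI50.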 Active and inactive are the calls of the source. Rule as the data show it: active = GI50 up to about 1.1 µM and inactive = higher.

Legend:
Assay in all cases: NCI-60 cell line screen, 48 h
PC-3 = tested on: PC-3
OVCAR-3 = tested on: OVCAR-3
NCI-H460 = tested on: NCI-H460
NCI-H23 = tested on: NCI-H23
A498 = tested on: A498
NCI-H226 = tested on: NCI-H226
A549 = tested on: A549
TK-10 = tested on: TK-10
IGROV-1 = tested on: IGROV-1
HOP-62 = tested on: HOP-62
K562 = tested on: K562
UACC-62 = tested on: UACC-62
MCF7 = tested on: MCF7
SN12C = tested on: SN12C
HT-29 = tested on: HT-29
EKVX = tested on: EKVX
DU-145 = tested on: DU-145
UO-31 = tested on: UO-31
NCI-H522 = tested on: NCI-H522

Measured: GI50

O=C(NC1(C(=O)O)CC1c1ccccc1)c1ccccc1 (stereo unspecified)
inactive: PC-3 > 100 µM | OVCAR-3 > 100 µM | NCI-H460 > 100 µM | NCI-H23 > 100 µM | A498 > 100 µM | NCI-H226 > 100 µM | A549 > 100 µM | TK-10 > 100 µM | IGROV-1 > 100 µM | HOP-62 > 100 µM | K562 > 100 µM | UACC-62 > 100 µM | MCF7 > 100 µM | SN12C > 100 µM | HT-29 > 100 µM | EKVX > 100 µM | DU-145 > 100 µM | UO-31 > 100 µM | NCI-H522 > 100 µM

C[C@H](NC1=C(Cl)C(=O)c2c(O)ccc(O)c2C1=O)C(=O)Nc1ccc([N+](=O)[O-])cc1
inactive: PC-3 3.41 µM | OVCAR-3 1.38 µM | NCI-H460 2.06 µM | NCI-H23 2.02 µM | A498 2.39 µM | NCI-H226 1.91 µM | A549 1.71 µM | TK-10 1.95 µM | IGROV-1 2.5 µM | HOP-62 2.45 µM | K562 10 µM | UACC-62 2.4 µM | MCF7 1.75 µM | SN12C 1.6 µM | HT-29 2.62 µM | EKVX 4.93 µM | DU-145 1.82 µM | NCI-H522 2.9 µM

O=S(=O)(c1cc(Cl)ccc1Cl)N1CCN(c2cccc(Cl)c2)CC1
inactive: PC-3 > 100 µM | OVCAR-3 > 100 µM | NCI-H460 > 100 µM | NCI-H23 > 100 µM | A498 > 100 µM | NCI-H226 > 100 µM | A549 > 100 µM | TK-10 > 100 µM | IGROV-1 > 100 µM | HOP-62 > 100 µM | K562 67 µM | MCF7 > 100 µM | SN12C > 100 µM | HT-29 58.7 µM | EKVX > 100 µM | DU-145 > 100 µM | UO-31 > 100 µM | NCI-H522 > 100 µM

O=S1(=O)Cc2ccc3c4c2-c2c(ccc5ccc(c-4c25)CS(=O)(=O)C3)C1
inactive: PC-3 93.1 µM | OVCAR-3 > 100 µM | NCI-H460 63.2 µM | A498 > 100 µM | NCI-H226 > 100 µM | A549 > 100 µM | TK-10 79.6 µM | IGROV-1 29.8 µM | HOP-62 > 100 µM | K562 26.7 µM | UACC-62 87.1 µM | MCF7 92.3 µM | SN12C 82.4 µM | HT-29 57 µM | EKVX 89.1 µM | DU-145 > 100 µM | UO-31 43.3 µM | NCI-H522 46.8 µM

CC(=O)Oc1c(-c2ccccc2)sc2ccccc12
inactive: PC-3 25.5 µM | OVCAR-3 > 10 µM | NCI-H460 14.5 µM | NCI-H23 15.1 µM | A498 17.8 µM | NCI-H226 13.3 µM | A549 20.6 µM | TK-10 22.6 µM | IGROV-1 15.3 µM | HOP-62 22.3 µM | K562 13.9 µM | UACC-62 15.7 µM | MCF7 27.6 µM | HT-29 20.3 µM | EKVX 22.3 µM | DU-145 14.1 µM | UO-31 16.8 µM | NCI-H522 19 µM
